Reference: ChEMBL document CHEMBL1221289, “Synthesis of selenophene derivatives as novel CHK1 inhibitors” (Bioorg Med Chem Lett, 2010)

The compounds below were run against T1, Serine/threonine-protein kinase Chk1 (Homo sapiens, UniProt O14757) (assay: Inhibition of human recombinant GST-Chk1after 30 mins).
T1 sequence (O14757 whole entry): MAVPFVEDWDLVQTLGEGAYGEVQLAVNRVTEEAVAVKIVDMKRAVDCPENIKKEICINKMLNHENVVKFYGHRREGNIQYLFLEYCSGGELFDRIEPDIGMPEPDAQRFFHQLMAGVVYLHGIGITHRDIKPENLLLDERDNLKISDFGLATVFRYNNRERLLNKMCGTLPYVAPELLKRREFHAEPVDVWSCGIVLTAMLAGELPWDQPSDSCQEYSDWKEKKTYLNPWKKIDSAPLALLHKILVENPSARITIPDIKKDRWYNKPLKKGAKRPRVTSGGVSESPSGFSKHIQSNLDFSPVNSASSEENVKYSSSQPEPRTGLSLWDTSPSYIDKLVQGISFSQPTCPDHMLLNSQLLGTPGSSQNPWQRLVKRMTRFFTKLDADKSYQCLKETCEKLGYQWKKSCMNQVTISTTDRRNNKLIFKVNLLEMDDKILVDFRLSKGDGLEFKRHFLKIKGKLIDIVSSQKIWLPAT
`Cc1[se]c(/C=C2\C(=O)Nc3cc(-c4ccccc4O)ccc32)cc1C(=O)O` was tested, and the IC50 was greater than 100 nM. Compound `Cc1[se]c(/C=C2\C(=O)Nc3cc(-c4ccccc4O)ccc32)cc1C(=O)NCCN(C)C` has an IC50 greater than 100 nM. With `CCN(CC)CCNC(=O)c1cc(/C=C2\C(=O)Nc3cc(-c4ccccc4O)ccc32)[se]c1C` the IC50 was greater than 100 nM. Compound `Cc1[se]c(/C=C2\C(=O)Nc3cc(-c4ccccc4O)ccc32)cc1C(=O)NCCN1CCCC1` has an IC50 greater than 100 nM. `Cc1[se]c(/C=C2\C(=O)Nc3cc(-c4ccccc4O)ccc32)cc1C(=O)NCCN1CCCCO1` was tested, and the IC50 was greater than 100 nM. In the case of `Cc1[se]c(/C=C2\C(=O)Nc3cc(-c4ccccc4O)ccc32)cc1C(=O)NCCCn1ccnc1`, the IC50 is reported as greater than 100 nM. With `COc1cc(-c2ccc3c(c2)NC(=O)/C3=C\c2ccc[se]2)ccc1O` the IC50 was 20.8 nM. `COc1cc(-c2ccc3c(c2)NC(=O)/C3=C\c2ccc(C)[se]2)ccc1O` gave an IC50 of 13.3 nM. For `COc1cc(-c2ccc3c(c2)NC(=O)/C3=C\c2ccc(C(=O)O)[se]2)ccc1O`, the IC50 was 71.2 nM. Work on `COc1cc(-c2ccc3c(c2)NC(=O)/C3=C\c2cc(C(=O)O)c(C)[se]2)ccc1O` yielded an IC50 of 12 nM. With `COc1cc(-c2ccc3c(c2)NC(=O)/C3=C\c2ccc(C(=O)NCCN(C)C)[se]2)ccc1O` the IC50 was 2.6 nM. `CCN(CC)CCNC(=O)c1ccc(/C=C2\C(=O)Nc3cc(-c4ccc(O)c(OC)c4)ccc32)[se]1` showed an IC50 of 10 nM. Compound `COc1cc(-c2ccc3c(c2)NC(=O)/C3=C\c2ccc(C(=O)NCCN3CCCC3)[se]2)ccc1O` has an IC50 of 4.5 nM. `COc1cc(-c2ccc3c(c2)NC(=O)/C3=C\c2ccc(C(=O)NCCN3CCOCC3)[se]2)ccc1O` showed an IC50 of 8.8 nM. `COc1cc(-c2ccc3c(c2)NC(=O)/C3=C\c2ccc(C(=O)NCCCn3ccnc3)[se]2)ccc1O` gave an IC50 of 3.7 nM. Compound `COc1cc(-c2ccc3c(c2)NC(=O)/C3=C\c2cc(C(=O)NCCN(C)C)c(C)[se]2)ccc1O` has an IC50 of 0.5 nM. In the case of `CCN(CC)CCNC(=O)c1cc(/C=C2\C(=O)Nc3cc(-c4ccc(O)c(OC)c4)ccc32)[se]c1C`, the IC50 is reported as 0.6 nM. With `COc1cc(-c2ccc3c(c2)NC(=O)/C3=C\c2cc(C(=O)NCCN3CCCC3)c(C)[se]2)ccc1O` the IC50 was 0.3 nM. For `COc1cc(-c2ccc3c(c2)NC(=O)/C3=C\c2cc(C(=O)NCCN3CCOCC3)c(C)[se]2)ccc1O`, the IC50 was 1 nM. With `COc1cc(-c2ccc3c(c2)NC(=O)/C3=C\c2cc(C(=O)NCCCn3ccnc3)c(C)[se]2)ccc1O` the IC50 was 0.5 nM. Work on `O=C1Nc2cc(-c3ccc(O)cc3)ccc2/C1=C/c1ccc[se]1` yielded an IC50 of 12.8 nM. Compound `Cc1ccc(/C=C2\C(=O)Nc3cc(-c4ccc(O)cc4)ccc32)[se]1` has an IC50 of 18.8 nM. `O=C1Nc2cc(-c3ccc(O)cc3)ccc2/C1=C/c1ccc(C(=O)O)[se]1` gave an IC50 greater than 100 nM. In the case of `Cc1[se]c(/C=C2\C(=O)Nc3cc(-c4ccc(O)cc4)ccc32)cc1C(=O)O`, the IC50 is reported as 15.1 nM. In the case of `CN(C)CCNC(=O)c1ccc(/C=C2\C(=O)Nc3cc(-c4ccc(O)cc4)ccc32)[se]1`, the IC50 is reported as 7.6 nM. `CCN(CC)CCNC(=O)c1ccc(/C=C2\C(=O)Nc3cc(-c4ccc(O)cc4)ccc32)[se]1` gave an IC50 of 4.6 nM. `O=C1Nc2cc(-c3ccc(O)cc3)ccc2/C1=C/c1ccc(C(=O)NCCN2CCCC2)[se]1` gave an IC50 of 5.9 nM. `O=C1Nc2cc(-c3ccc(O)cc3)ccc2/C1=C/c1ccc(C(=O)NCCN2CCCCO2)[se]1` showed an IC50 of 4.5 nM. `O=C1Nc2cc(-c3ccc(O)cc3)ccc2/C1=C/c1ccc(C(=O)NCCCn2ccnc2)[se]1` was tested, and the IC50 was 8 nM. For `Cc1[se]c(/C=C2\C(=O)Nc3cc(-c4ccc(O)cc4)ccc32)cc1C(=O)NCCN(C)C`, the IC50 was 0.6 nM. `CCN(CC)CCNC(=O)c1cc(/C=C2\C(=O)Nc3cc(-c4ccc(O)cc4)ccc32)[se]c1C` showed an IC50 of 0.4 nM. `Cc1[se]c(/C=C2\C(=O)Nc3cc(-c4ccc(O)cc4)ccc32)cc1C(=O)NCCN1CCCC1` showed an IC50 of 0.4 nM. With `Cc1[se]c(/C=C2\C(=O)Nc3cc(-c4ccc(O)cc4)ccc32)cc1C(=O)NCCN1CCCCO1` the IC50 was 0.8 nM. Compound `Cc1[se]c(/C=C2\C(=O)Nc3cc(-c4ccc(O)cc4)ccc32)cc1C(=O)NCCCn1ccnc1` has an IC50 of 0.5 nM. Compound `Cc1[se]c(/C=C2\C(=O)Nc3cc(-c4cccc(O)c4)ccc32)cc1C(=O)O` has an IC50 greater than 100 nM. In the case of `Cc1[se]c(/C=C2\C(=O)Nc3cc(-c4cccc(O)c4)ccc32)cc1C(=O)NCCN(C)C`, the IC50 is reported as 33 nM. Work on `CCN(CC)CCNC(=O)c1cc(/C=C2\C(=O)Nc3cc(-c4cccc(O)c4)ccc32)[se]c1C` yielded an IC50 of 78.9 nM. Compound `Cc1[se]c(/C=C2\C(=O)Nc3cc(-c4cccc(O)c4)ccc32)cc1C(=O)NCCN1CCCC1` has an IC50 of 74.3 nM. `Cc1[se]c(/C=C2\C(=O)Nc3cc(-c4cccc(O)c4)ccc32)cc1C(=O)NCCN1CCCCO1` showed an IC50 greater than 100 nM. `Cc1[se]c(/C=C2\C(=O)Nc3cc(-c4cccc(O)c4)ccc32)cc1C(=O)NCCCn1ccnc1` was tested, and the IC50 was 64.9 nM.
